1 compound from article PMC5399312 (Journal of Experimental & Clinical Cancer Research : CR, 2017) can be followed below.

Where two headings read alike, the source gives them in different places. Some results are limits rather than exact numbers.

The subject of one data set is SW480 cells xenograft. The conditions noted are these: for decrease of size and weight of tumors: 16 days, versus vehicle. The protocol:
All animal experiments were performed in accordance with the Guide for the Care and Use of Laboratory Animals of Tongji Medical College, Huazhong University of Science and Technology and approved by the Ethics Committee. CB-17/ SCID mice (male, 4 weeks old) were purchased from Beijing HFK Bioscience CO., LTD (Beijing, China). SW480 cells were inoculated subcutaneously (3 × 10^6 cells) into the left flank of each mouse. […] The dose volume was 0.1 mL/10 g body weight, and the weights of mice were recorded every day. Meanwhile, the tumor volumes were measured with vernier calipers and calculated by the following formula: (A × B^2)/2, where A was length and B was width of the two-dimension tumor. After animals were sacrificed, tumor weights were measured. The inhibition ratio (%) was calculated using the following equation: I% = 100% × [Wtumor (vehicle) − Wtumor (treated)]/Wtumor (vehicle)

For a further data set, the system named is Lovo. The data set is described as follows: Cytotoxicity test (CCK-8). In kind it is cell-based. Conditions: Homo sapiens, 48 h. The protocol: (§1) Met was used as a positive control. All experiments were performed in triplicate.
In the next data set the test system is SW480. The data set is described as follows: Cytotoxicity test (CCK-8). In kind it is cell-based. Conditions: Homo sapiens, SW480, 48 h. The method, then:
as §1

The subject of a further data set is SMMC-7721. The data set is described as follows: Cytotoxicity test (CCK-8). The format is cell-based. The conditions noted are these: Homo sapiens, SMMC-7721, 48 h. The method, then:
as §1

A further data set relates to MCF-7. In words: Cytotoxicity test (CCK-8). The format is cell-based. The conditions noted are these: Homo sapiens, MCF7; MCF-7, 48 h. The method, then:
as §1

Data set [1] in a line: Cytotoxicity test (CCK-8). The format is cell-based. The method, then: as §1
The subject of the next data set is HCT116. In words: Cytotoxicity test (CCK-8). The format is cell-based. The conditions noted are these: Homo sapiens, HCT-116; HCT116, 48 h. The method, then: as §1
The next data set relates to SW480 cells. The data set is described as follows: Flow cytometric analysis for apoptosis (Annexin-V/PI). The format is cell-based, human. Conditions: 48 h, control 0.7%. The protocol:
Then the cells were harvested, washed twice with ice-cold PBS, and mixed in 100 μL of 1× binding buffer (10 mM HEPES/ NaOH, pH 7.4, 140 mM NaCl, 2.5 mM CaCl2). After culturing for 15 min at room temperature in Annexin-V/PI double staining liquid (Nanjing KeyGen Biotech. Inc.), the cells were examined by flow cytometry (BD Biosciences, FACSCalibur).

As to `NC(CO)C(=O)NNCc1ccc(O)c(O)c1O` (centres unmarked) [Benz, Benserazide], the “decrease of size and weight of tumors” value with SW480 cells xenograft (300 mg/Kg per day i.p.) is on record as 30.1%; in the data set on SW480 cells xenograft (600 mg/Kg per day i.p.), 60.3%. Also, the toxicity in mice result with SW480 cells xenograft (mouse, in vivo) was “no toxicity shown”. In the data set on SW480 cells xenograft (tumor-bearing mice, daily i.p. 16 days), the “body weight and histomorphology” value is “no remarkable loss of body weight and change of histomorphology”. Further, the IC50 in the data set on Lovo stood at 151 ± 4.5 µM; in the data set on SW480, 143 ± 7 µM; with SMMC-7721 it was 210 ± 7.9 µM; in the data set with MCF-7, 186 ± 12.5 µM; in the data set on HCT116, 181 ± 11.5 µM. In addition, the 50% inhibitory concentration (IC50) at 48 h was more than 500 µM in data set [1] (African green monkey, Vero normal cells) and more than 500 µM in data set [1] (human, LO2 normal cells). Further, the figures for the apoptotic death in the data set on SW480 cells (75 μM), in the data set with SW480 cells (150 μM) and with SW480 cells (300 μM) were 10.4%, 22.5% and 44.1%, respectively.
